Results taken from patent US9029389B2 (Institut Pasteur Korea, priority 2011, dated 2015).

How the values were obtained:
[1] = target: T1, Human 5-lipoxygenase (Homo sapiens, UniProt P09917); assay: Activity of compounds against 5-LO enzyme (LTB4 measurement and/or fluorescence method); format: biochemical; details: for inhibition at 10 µM: 5-LO, single concentration of 10 uM in duplicate; for IC50: 6 or 11 point dose response in duplicate
T1 construct: purchased Cayman 60402; host or cells: insect cells
T1 sequence (P09917 1-674): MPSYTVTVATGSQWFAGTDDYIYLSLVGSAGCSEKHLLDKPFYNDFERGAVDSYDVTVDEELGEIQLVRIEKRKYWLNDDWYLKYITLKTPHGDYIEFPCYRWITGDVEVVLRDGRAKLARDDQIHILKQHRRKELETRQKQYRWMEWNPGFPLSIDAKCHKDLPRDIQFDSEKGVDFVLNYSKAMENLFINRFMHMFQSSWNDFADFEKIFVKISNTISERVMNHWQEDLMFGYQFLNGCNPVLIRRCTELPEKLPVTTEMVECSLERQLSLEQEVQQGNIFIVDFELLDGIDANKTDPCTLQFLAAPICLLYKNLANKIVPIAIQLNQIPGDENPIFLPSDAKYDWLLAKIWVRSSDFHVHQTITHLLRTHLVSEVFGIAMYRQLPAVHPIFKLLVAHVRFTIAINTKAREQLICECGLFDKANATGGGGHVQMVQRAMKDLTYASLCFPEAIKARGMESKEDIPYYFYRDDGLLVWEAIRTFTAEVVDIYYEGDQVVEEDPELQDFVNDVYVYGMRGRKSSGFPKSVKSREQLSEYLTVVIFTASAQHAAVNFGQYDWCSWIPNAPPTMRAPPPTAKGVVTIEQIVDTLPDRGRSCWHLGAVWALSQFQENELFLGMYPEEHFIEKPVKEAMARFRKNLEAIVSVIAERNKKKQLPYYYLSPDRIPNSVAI
Method in brief: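 Insect-cell human 5-LO preincubated 15 min at RT with compound (pH 7.4, 2 mM CaCl2, 0.1 mM ATP, 1% DMSO), then 3 uM arachidonic acid for 5 min at 37 °C; LTB4 quantified by EIA and/or LC/MS/MS. Alternatively, fluorescence of 5-HpETE via H2DCFDA, 100 uM ATP, 3 uM arachidonic acid, 5 min, RT; single 10 uM screen then 6- or 11-point IC50.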

| inhibition at 10 µM [1] [%] | IC50 [1] [nM] | melting point | Structure (SMILES) |
| --- | --- | --- | --- |
| > 69 | < 1000 | 133.6 °C | CCc1nc2cc(C)ccn2c1C(=O)NCc1ccc(Oc2ccc(OC(F)(F)F)cc2)cc1 [compound 219, 2-Ethyl-7-methyl-N-(4-(4-(trifluoromethoxy)phenoxy)benzyl)imidazo[1,2-a]pyridine-3-carboxamide] |
| 40 to 69 | – | 166.3 °C | CCc1nc2cc(Cl)ccn2c1C(=O)NCc1ccc(N2CCC(F)(F)CC2)cc1 [compound 236, 7-Chloro-N-(4-(4,4-difluoropiperidin-1-yl)benzyl)-2-ethylimidazo[1,2-a]pyridine-3-carboxamide] |
| > 69 | 1000 to 20000 | 138.7 °C | CCc1nc2ccccn2c1C(=O)NCc1ccc(OCc2ccc(OC(F)(F)F)cc2)cc1 [compound 207, 2-Ethyl-N-(4-(4-(trifluoromethoxy)benzyloxy)benzyl)imidazo[1,2-a]pyridine-3-carboxamide] |
| < 40 | – | 192.6 °C | CCc1nc2cc(Cl)ccn2c1C(=O)NCc1cccc(-c2ccc(OC(F)(F)F)cc2)c1 [compound 204, 7-Chloro-2-ethyl-N-((4′-(trifluoromethoxy)biphenyl-3-yl)methyl)imidazo[1,2-a]pyridine-3-carboxamide] |
| 40 to 69 | – | 167 to 167.6 °C | CCc1nc2cc(Cl)ccn2c1C(=O)NCc1ccc(Oc2ccc(F)cc2)nc1 [compound 188, 7-Chloro-2-ethyl-N-((6-(4-fluorophenoxy)pyridin-3-yl)methyl)imidazo[1,2-a]pyridine-3-carboxamide] |
| < 40 | – | > 133.7 °C (dec.) | CCc1nc2ccccn2c1C(=O)NCc1ccc(C2CCOCC2)cc1 [compound 362, 2-ethyl-N-(4-(tetrahydro-2H-pyran-4-yl)benzyl)imidazo[1,2-a]pyridine-3-carboxamide] |
| < 40 | – | 163 °C | CCc1nc2c(OC(F)F)cccn2c1C(=O)NCc1ccc(N2CCOCC2)cc1 [compound 279, 8-(Difluoromethoxy)-2-ethyl-N-(4-morpholinobenzyl)imidazo[1,2-a]pyridine-3-carboxamide] |
| 40 to 69 | – | 145 to 146 °C | CCc1nc2cc(Cl)ccn2c1C(=O)NCC1CCN(Cc2ccc(OC(F)(F)F)cc2)CC1 [compound 140, 7-Chloro-2-ethyl-N-((1-(4-(trifluoromethoxy)benzyl)piperidin-4-yl)methyl)imidazo[1,2-a]pyridine-3-carboxamide] |
| 40 to 69 | – | 177 °C | CCc1nc2cc(Cl)ccn2c1C(=O)NCc1ccc(N2CCC(c3ccc(Cl)cc3)CC2)cc1 [compound 297, 7-Chloro-N-(4-(4-(4-chlorophenyl)piperidin-1-yl)benzyl)-2-ethylimidazo[1,2-a]pyridine-3-carboxamide] |
| – | < 1000 | 228.8 °C | Cc1nc2cccc(C)n2c1CNc1ccc(N2CCC(c3ccc(F)cc3)CC2)cc1 [compound 401, N-((2,5-dimethylimidazo[1,2-a]pyridin-3-yl)methyl)-4-(4-(4-fluorophenyl)piperidin-1-yl)aniline] |
| < 40 | – | 179.1 to 180 °C | CCc1nc2cc(Cl)ccn2c1C(=O)NCc1ccc(N2CCC(O)CC2)cc1 [compound 199, 7-Chloro-2-ethyl-N-(4-(4-hydroxypiperidin-1-yl)benzyl)imidazo[1,2-a]pyridine-3-carboxamide] |
| < 40 | – | > 198.8 °C (dec.) | CCc1nc2ccc(Cl)cn2c1C(=O)NCc1cccc(CC(=O)Nc2ccc(F)cc2)c1 [compound 355, 6-chloro-2-ethyl-N-(3-(2-((4-fluorophenyl)amino)-2-oxoethyl)benzyl)imidazo[1,2-a]pyridine-3-carboxamide] |
| < 40 | – | > 97.1 °C | CCc1nc2cc(Cl)ccn2c1C(=O)NCc1ccc(N2CC(COc3ccc(F)cc3)OC2=O)cc1 (centres unmarked) [compound 378, 7-chloro-2-ethyl-N-(4-(5-((4-fluorophenoxy)methyl)-2-oxooxazolidin-3-yl)benzyl)imidazo[1,2-a]pyridine-3-carboxamide] |
| 40 to 69 | – | 206.5 to 207 °C | CCc1nc2ccc(Cl)cn2c1C(=O)NCc1ccc(N2CCN(c3ccc(OC(F)(F)F)cc3)CC2)cc1 [compound 158, 6-Chloro-2-ethyl-N-(4-(4-(4-(trifluoromethoxy)phenyl)piperazin-1-yl)benzyl)imidazo[1,2-a]pyridine-3-carboxamide] |
| 40 to 69 | – | 215 to 216 °C | CCc1nc2c[n+]([O-])ccn2c1C(=O)NCc1ccc(OC(F)(F)F)cc1 [compound 142, 2-Ethyl-3-((4-(trifluoromethoxy)benzyl)carbamoyl)imidazo[1,2-a]pyrazine 7-oxide] |
| > 69 | 1000 to 20000 | 178 to 179 °C | CCc1nc2ccccn2c1C(=O)NCc1ccc(N2CCN(c3ccc(OC(F)(F)F)cc3)CC2)cc1 [compound 181, 2-Ethyl-N-(4-(4-(4-(trifluoromethoxy)phenyl)piperazin-1-yl)benzyl)imidazo[1,2-a]pyridine-3-carboxamide] |
| < 40 | – | 161.1 °C | CCc1nc2ccc(Cl)cn2c1C(=O)NCc1ccc(N2CCC(CO)CC2)cc1 [compound 230, 6-Chloro-2-ethyl-N-(4-(4-(hydroxymethyl)piperidin-1-yl)benzyl)imidazo[1,2-a]pyridine-3-carboxamide] |
| < 40 | – | 202.6 °C | CCc1nc2cc(Br)ccn2c1C(=O)NCc1ccc(N2CCOCC2)cc1 [compound 253, 7-Bromo-2-ethyl-N-(4-morpholinobenzyl)imidazo[1,2-a]pyridine-3-carboxamide] |
| > 69 | < 1000 | 163 °C | CCc1nc2cc(Cl)ccn2c1C(=O)NCc1ccc2oc(C3CCCCC3)nc2c1 [compound 299, 7-Chloro-N-((2-cyclohexylbenzo[d]oxazol-5-yl)methyl)-2-ethylimidazo[1,2-a]pyridine-3-carboxamide] |
| > 69 | < 1000 | 144.2 °C | CCc1nc2ccccn2c1C(=O)NCc1ccc(N2CCC(COc3ccc(F)cc3)CC2)cc1 [compound 243, 2-Ethyl-N-(4-(4-((4-fluorophenoxy)methyl)piperidin-1-yl)benzyl)imidazo[1,2-a]pyridine-3-carboxamide] |
| > 69 | < 1000 | 154 to 155 °C | CCc1nc2ccc(Cl)cn2c1C(=O)NCc1ccc(Oc2ccc(OC(F)(F)F)cc2)nc1 [compound 189, 6-Chloro-2-ethyl-N-((6-(4-(trifluoromethoxy)phenoxy)pyridin-3-yl)methyl)imidazo[1,2-a]pyridine-3-carboxamide] |
| 40 to 69 | – | 138.2 °C | CCc1nc2ccc(Cl)cn2c1C(=O)NCc1ccc(N2CCC(c3ccccc3)CC2)cc1 [compound 210, 6-Chloro-2-ethyl-N-(4-(4-phenylpiperidin-1-yl)benzyl)imidazo[1,2-a]pyridine-3-carboxamide] |
| – | < 1000 | 196.4 °C | Cc1nc2cccc(C)n2c1CNc1ccc(N2CCN(c3ccc(F)cc3)CC2)cc1 [compound 402, N-((2,5-dimethylimidazo[1,2-a]pyridin-3-yl)methyl)-4-(4-(4-fluorophenyl)piperazin-1-yl)aniline] |
| 40 to 69 | – | 158 to 159 °C | CCc1nc2ccc(Cl)cn2c1C(=O)NCCc1ccc(Cl)cc1 [compound 137, 6-Chloro-N-(4-chlorophenethyl)-2-ethylimidazo[1,2-a]pyridine-3-carboxamide] |
| < 40 | – | 115 to 116 °C | CCc1nc2ccc(Cl)cn2c1C=O [compound 145, 6-Chloro-2-ethylimidazo[1,2-a]pyridine-3-carbaldehyde] |
| < 40 | – | – | CCc1nc2ccc(Cl)cn2c1C(=O)N1CCC(Cn2cc(C(O)(CC)C(F)(F)F)nn2)CC1 (centres unmarked) [compound 350, (6-chloro-2-ethylimidazo[1,2-a]pyridin-3-yl)(4-((4-(1,1,1-trifluoro-2-hydroxybutan-2-yl)-1H-1,2,3-triazol-1-yl)methyl)piperidin-1-yl)methanone] |
| < 40 | – | – | CCc1nc2ccc(Cl)cn2c1C(=O)NCc1ccc(N2CCC(O)(C(C)(C)C)CC2)cc1 [compound 322, N-(4-(4-(tert-butyl)-4-hydroxypiperidin-1-yl)benzyl)-6-chloro-2-ethylimidazo[1,2-a]pyridine-3-carboxamide] |
| 40 to 69 | – | – | CCc1nc2ccc(Br)cn2c1C(=O)NCc1ccc(OC(F)(F)F)cc1 [compound 176, 6-Bromo-2-ethyl-N-(4-(trifluoromethoxy)benzyl)imidazo[1,2-a]pyridine-3-carboxamide] |
